Assay results from patent US4703061A, “Gamma-aminobutyric acid derivatives, process for production thereof, and use thereof as medicaments” (priority 1984, dated 1987).
Where a name gives a salt, the structure may show the parent alone.

What was measured:
[1] = tested on: electric convulsive shock-induced amnesia model; experiment: Effects on ECS-induced amnesia (step-down retention test); assay type: in vivo, ddY-strain male mice; conditions: for Escape learning latency (mean ± S.E.) / Step-down latency (mean ± S.E.): ECS 300 V, retention test 24 hours
Protocol: The test animals used were ddY-strain male mice (body weight 30-35 g). The experiment was carried out indoors at about 20° C., and the mice were allowed to take feed and water freely. 2. Effects on memorized behaviors A device comprised of a floor grid surrounded on four sides by acrylic glass walls each having a lateral dimension of 21 cm and a wooden platform, 4×4×4 cm in size, fixed centrally to the floor grid was placed in a wooden semi-soundproof box having a size of 21×21×40 cm with a […] electric bulb suspended from its ceiling. The floor grid consisted of stainless steel rods, 3 mm in diameter, arranged at intervals of 8 mm. An intermittent electric shock (1 Hz, 0.5 sec., 60 V DC) was applied to the grid by an electric impulse apparatus and an isolator. A mouse was placed in a predetermined direction on the platform. Immediately after the mouse stepped down onto the floor grid (when the mouse's four limbs left the platform), an electric shock was applied to the floor grid, and the intermittent application of the electric shock was continued until the mouse climbed up the platform to escape from the electric shock. The time which elapsed until the mouse stepped down from the platform (SDL, step down latency) and the time which elapsed until the mouse escaped to the platform from the electric shock (ELL, escape learning latency) were measured. […] By the same procedure as in the training test, a mouse was placed on the platform, and its step down latency (SDL) was measured. The cut-off time was 300 seconds. After the mouse stepped down, or the cut-off time elapsed, the mouse was placed on the floor grid at a corner of the device with its head directed in a direction opposite to the platform. An electric shock was applied to the mouse and its escape learning latency (ELL) was measured. Mice divided into groups each consisting of not less than 15 mice were subjected to the training test, and immediately then, ECS (300 V DC, 0.5 sec.) was applied to the mice through both ears. Twenty-four hours later, the mice were subjected to the retention test. Immediately after administration of CXM or application of ECS, a 0.9% normal saline solution of each of the test compounds was intraperitoneally administered to the mice. Separately, a 5% gum arabic solution of CXM was administered to the mice in a control group. […] But the mice recovered 1 to 2 minutes later.

in vivo = conditions: mouse, in vivo, ip
Protocol: (§1) Calcium 4-(3,5-dihydroxy-3-methylpentylamide) butyrate was intraperitoneally administered in doses of 500 mg/kg and 1,000 mg/kg respectively to eight ddY-strain male mice (body weight 20 to 25 g).

ddY-strain male mice = experiment: Toxicity test, intraperitoneal (LD50); conditions: 500 mg/kg and 1,000 mg/kg i.p.; result in words
Protocol: as §1

[2] = tested on: motor activity induced by atropine; experiment: Antagonistic effect against atropine (automex method); assay type: in vivo, ddY-strain male mice; conditions: 600 mg/kg i.p. + atropine 30 mg/kg s.c.
Protocol: (§2) In Tests 1 to 4 given below, ddY-strain male mice (body weight 20-25 g) were used, and the experiments were carried out in a semi-soundproof, constant-temperature room kept at a temperature of 23±1° C. and a humidity of 55±2%. The mice were allowed to take feed and water freely.
Test 4: Antagonistic effect against atropine (automex method)
Each of the test compounds was intraperitoneally administered to mice divided into 6-membered groups, and immediately then, atropine was subcutaneously injected into the mice in a dose of 30 mg/kg. The effect of each test compound on the enhancement of motor activity induced by atropine was examined in accordance with the automex method.

[3] = tested on: planar locomotor activity of mice; experiment: Effects on planar locomotor activity, automex method; assay type: in vivo, ddY-strain male mice
Protocol: as §2
The effects of the test compound on planar locomotor activity of the mice were examined by using an automex activity meter (made by Columbus Company). […] The test compound was intraperitoneally administered to the mice in doses indicated. Immediately then, five mice were put into each of transparent plastic cages (27×17×17 cm), and placed on the automex activity meter. The motor activity for 30 minutes was measured at 5 minutes intervals, and compared with that of the control group.

[4] = tested on: motor activity enhanced by methamphetamine; experiment: Antagonistic effect against methamphetamine (automex method); assay type: in vivo, ddY-strain male mice; conditions: for Motor activity (total number of counts): 500 mg/kg i.p. + methamphetamine 3 mg/kg s.c.
Protocol: as §2
Test 2: Antagonistic effect against methamphetamine (automex method)
Mice were used in 5-membered groups. Each of the test compounds was intraperitoneally administered to the mice in a predetermined dose, and immediately then, the mice were subcutaneously injected with methamphetamine in a dose of 3 mg/kg. The action of the test compounds on motor activity enhanced by methamphetamine was examined in accordance with the automex method given above.

CC(O)(CCO)CC(=O)NCCCC(=O)O (centres unmarked) [MV-GABA-Ca salt, calcium 4-(3,5-dihydroxy-3-methylpentylamide) butyrate]
Escape learning latency (mean ± S.E.) ([1]; 250 mg/kg i.p.): 12.8 ± 1.6 s | Step-down latency (mean ± S.E.) ([1]; 250 mg/kg i.p.): 104.6 ± 17.7 s | Escape learning latency (mean ± S.E.) ([1]; 500 mg/kg i.p.): 8.0 ± 1.1 s | Step-down latency (mean ± S.E.) ([1]; 500 mg/kg i.p.): 158.5 ± 21.7 s | prolongation of ELL (ECS) ([1]; 500 mg/kg, result in words): significantly improved the prolongation of ELL | Escape learning latency (mean ± S.E.) ([1]; 750 mg/kg i.p.): 6.7 ± 0.7 s | Step-down latency (mean ± S.E.) ([1]; 750 mg/kg i.p.): 215.2 ± 15.9 s | shortening of SDL and prolongation of ELL (ECS) ([1]; 750 mg/kg, result in words): significantly improved shortening of SDL and also the prolongation of ELL | LD50 (in vivo): > 2000 mg/kg | death (ddY-strain male mice): no case of death | Motor activity (total number of counts) ([2]; 5 minutes): 8 counts | Motor activity (total number of counts) ([2]; 10 minutes): 12 counts | Motor activity (total number of counts) ([2]; 15 minutes): 19 counts | Motor activity (total number of counts) ([2]; 20 minutes): 27 counts | Motor activity (total number of counts) ([2]; 25 minutes): 47 counts | Motor activity (total number of counts) ([2]; 30 minutes): 92 counts | Motor activity (total number of counts) ([3]; 500 mg/kg i.p., 5 minutes): 172 counts | Motor activity (total number of counts) ([3]; 500 mg/kg i.p., 10 minutes): 241 counts | Motor activity (total number of counts) ([3]; 500 mg/kg i.p., 15 minutes): 307 counts | Motor activity (total number of counts) ([3]; 500 mg/kg i.p., 20 minutes): 405 counts | Motor activity (total number of counts) ([3]; 500 mg/kg i.p., 25 minutes): 505 counts | Motor activity (total number of counts) ([3]; 500 mg/kg i.p., 30 minutes): 558 counts | Motor activity (total number of counts) ([3]; 1000 mg/kg i.p., 5 minutes): 91 counts | Motor activity (total number of counts) ([3]; 1000 mg/kg i.p., 10 minutes): 128 counts | Motor activity (total number of counts) ([3]; 1000 mg/kg i.p., 15 minutes): 156 counts | Motor activity (total number of counts) ([3]; 1000 mg/kg i.p., 20 minutes): 177 counts | Motor activity (total number of counts) ([3]; 1000 mg/kg i.p., 25 minutes): 189 counts | Motor activity (total number of counts) ([3]; 1000 mg/kg i.p., 30 minutes): 203 counts | Motor activity (total number of counts) ([4]; 5 minutes): 10 counts | Motor activity (total number of counts) ([4]; 10 minutes): 11 counts | Motor activity (total number of counts) ([4]; 15 minutes): 22 counts | Motor activity (total number of counts) ([4]; 20 minutes): 38 counts | Motor activity (total number of counts) ([4]; 25 minutes): 71 counts | Motor activity (total number of counts) ([4]; 30 minutes): 126 counts | antagonistic effect against the increase of motor activity induced by methamphetamine ([4]; 500 mg/kg, result in words): markedly inhibited the motor activity of mice enhanced by methamphetamine
